The values below come from paper doi:10.1101/2025.03.14.643404, “A Bivalent Molecular Glue Linking Lysine Acetyltransferases to Oncogene-induced Cell Death” (bioRxiv, 2025).

Type in all cases: cell-based
The test system of test [1] is SUDHL5^TRE−3xFLAG-MYC cells. As to the kind of experiment: Viability of SUDHL5 TRE-3xFLAG-MYC cells, 72 h. The following applies: Homo sapiens. As to the method: Thirty thousand cells were seeded in 100 μl of media per well of a 96-well plate and treated with drug for the indicated times and doses. A resazurin-based indicator of cell health (PrestoBlue; P50200, Thermo Fisher) was added for 1.5 h at 37°C, at which point the fluorescence ratio at 560/590 nm was recorded (Tecan Spark). The background fluorescence was subtracted, and the signal was normalized to DMSO-treated cells. IC50 measurements on cell lines were calculated using at least three biological replicates (separate cell passages). Fit of dose–response curves to data and statistical analysis was performed using GraphPad PRISM using the four-parameter log(inhibitor) vs response function.
An N-terminal fusion of 3xFLAG followed by a GGSGS linker fused to the coding sequence of human c-MYC (NM_002467.6)) was subcloned into pCW57-MCS1–2A-MCS2 (a gift from Adam Karpf (Addgene plasmid 71782; http://n2t.net/addgene:71782; RRID:Addgene_71782)).
This construct is the same used for BCL6 nanoBRET studies above. Lentivirus was produced from HEK293T cells via polyethylenimine transfection. Briefly, cells were transfected using 2nd-generation packaging plasmids and media replaced after 24 hours. […]

In the next test the target is T1, p300 (Homo sapiens, UniProt Q09472).
T1 construct: endogenous in cells; host or cells: SUDHL5
As to the kind of experiment: Global proteome profiling in SUDHL5, p300 abundance. The following applies: SUDHL5, 10 nM, 24 hours. Here is the method:
SUDHL5 cells (6M cells in 6 mL RPMI-1640 media supplemented with 10% FBS and 1x pen-strep) were treated with 0.1% DMSO, 10 nM TCIP3, 10 nM Neg1, 10 nM Neg2, or 250 nM dCBP1 (1000x stocks in DMSO for final 0.1% DMSO concentration) in 3 biologically independent replicates. The cells were washed twice with TBS (50 mM Tris, pH 8.5, and 150 mM NaCl) and then stored at −80 °C until use.
Lysis was performed by first thermally denaturing the samples in residual wash buffer for 5 min at 95 °C. Fresh Lysis Buffer (8 M urea, 150 mM NaCl, and 100 mM HEPES, pH 8.0, in MS-grade water) was then added, and the lysates were homogenized using needle ultrasonication and then normalized to 30 μg of 2 mg/mL by diluting with Lysis Buffer via a Bradford protein concentration assay (Bio-Rad 5000006) in technical duplicates. […]
Samples were then desalted using SOLAμ SPE HRP Peptide Desalting columns (Thermo 60209–001) with a Positive Pressure Manifold and all MS-grade reagents. […] The samples were then reconstituted in 0.1% FA in water and then analyzed by LC-MS/MS (see below).
The reconstituted desalted peptides were then analyzed using a nanoElute 2 UHPLC (Bruker Daltonics, Bremen, Germany) coupled to a timsTOF HT (Bruker Daltonics, Bremen, Germany) via a CaptiveSpray nano-electrospray source. […]

The test system of another test is DAUDI. As to the kind of experiment: Cell viability, 7 days compound treatment (Cell Titer-Glo), DAUDI. The conditions noted are these: Homo sapiens, 168 h, read-out: IC50 of antiproliferation. Here is the method:
Fifteen thousand cells were seeded in 100 μl of media per well of a U-bottom 96-well plate and treated with digitally dispensed drugs (Tecan D300e) for the indicated times and doses. After 96 hours, plates were centrifuged for 750 rpm for 3 minutes, and old media was exchanged for 100 μl of fresh media. Drug treatment was then repeated at the indicated doses. 72 hours following media change, cells were transferred to 96 well flat-bottom opaque plates. Viability was measured by adding 25 μL Cell Titer-Glo reagent (Promega G7570) to each well and luminescence was measured (BMG Labtech Pherastar FS). The background luminescence was subtracted, and the signal was normalized to DMSO-treated cells. IC50 measurements on cell lines were calculated using at least three biological replicates by separate cell passages. Fit of dose–response curves to data and statistical analysis was performed using GraphPad PRISM using the four-parameter log(inhibitor) vs response function.
A general note: In ATP-based viability assays light output follows the ATP content of the culture.

Molecules are shown by their SMILES.

T1 sequence (Q09472 2-2414 limits assumed, other chains not shown): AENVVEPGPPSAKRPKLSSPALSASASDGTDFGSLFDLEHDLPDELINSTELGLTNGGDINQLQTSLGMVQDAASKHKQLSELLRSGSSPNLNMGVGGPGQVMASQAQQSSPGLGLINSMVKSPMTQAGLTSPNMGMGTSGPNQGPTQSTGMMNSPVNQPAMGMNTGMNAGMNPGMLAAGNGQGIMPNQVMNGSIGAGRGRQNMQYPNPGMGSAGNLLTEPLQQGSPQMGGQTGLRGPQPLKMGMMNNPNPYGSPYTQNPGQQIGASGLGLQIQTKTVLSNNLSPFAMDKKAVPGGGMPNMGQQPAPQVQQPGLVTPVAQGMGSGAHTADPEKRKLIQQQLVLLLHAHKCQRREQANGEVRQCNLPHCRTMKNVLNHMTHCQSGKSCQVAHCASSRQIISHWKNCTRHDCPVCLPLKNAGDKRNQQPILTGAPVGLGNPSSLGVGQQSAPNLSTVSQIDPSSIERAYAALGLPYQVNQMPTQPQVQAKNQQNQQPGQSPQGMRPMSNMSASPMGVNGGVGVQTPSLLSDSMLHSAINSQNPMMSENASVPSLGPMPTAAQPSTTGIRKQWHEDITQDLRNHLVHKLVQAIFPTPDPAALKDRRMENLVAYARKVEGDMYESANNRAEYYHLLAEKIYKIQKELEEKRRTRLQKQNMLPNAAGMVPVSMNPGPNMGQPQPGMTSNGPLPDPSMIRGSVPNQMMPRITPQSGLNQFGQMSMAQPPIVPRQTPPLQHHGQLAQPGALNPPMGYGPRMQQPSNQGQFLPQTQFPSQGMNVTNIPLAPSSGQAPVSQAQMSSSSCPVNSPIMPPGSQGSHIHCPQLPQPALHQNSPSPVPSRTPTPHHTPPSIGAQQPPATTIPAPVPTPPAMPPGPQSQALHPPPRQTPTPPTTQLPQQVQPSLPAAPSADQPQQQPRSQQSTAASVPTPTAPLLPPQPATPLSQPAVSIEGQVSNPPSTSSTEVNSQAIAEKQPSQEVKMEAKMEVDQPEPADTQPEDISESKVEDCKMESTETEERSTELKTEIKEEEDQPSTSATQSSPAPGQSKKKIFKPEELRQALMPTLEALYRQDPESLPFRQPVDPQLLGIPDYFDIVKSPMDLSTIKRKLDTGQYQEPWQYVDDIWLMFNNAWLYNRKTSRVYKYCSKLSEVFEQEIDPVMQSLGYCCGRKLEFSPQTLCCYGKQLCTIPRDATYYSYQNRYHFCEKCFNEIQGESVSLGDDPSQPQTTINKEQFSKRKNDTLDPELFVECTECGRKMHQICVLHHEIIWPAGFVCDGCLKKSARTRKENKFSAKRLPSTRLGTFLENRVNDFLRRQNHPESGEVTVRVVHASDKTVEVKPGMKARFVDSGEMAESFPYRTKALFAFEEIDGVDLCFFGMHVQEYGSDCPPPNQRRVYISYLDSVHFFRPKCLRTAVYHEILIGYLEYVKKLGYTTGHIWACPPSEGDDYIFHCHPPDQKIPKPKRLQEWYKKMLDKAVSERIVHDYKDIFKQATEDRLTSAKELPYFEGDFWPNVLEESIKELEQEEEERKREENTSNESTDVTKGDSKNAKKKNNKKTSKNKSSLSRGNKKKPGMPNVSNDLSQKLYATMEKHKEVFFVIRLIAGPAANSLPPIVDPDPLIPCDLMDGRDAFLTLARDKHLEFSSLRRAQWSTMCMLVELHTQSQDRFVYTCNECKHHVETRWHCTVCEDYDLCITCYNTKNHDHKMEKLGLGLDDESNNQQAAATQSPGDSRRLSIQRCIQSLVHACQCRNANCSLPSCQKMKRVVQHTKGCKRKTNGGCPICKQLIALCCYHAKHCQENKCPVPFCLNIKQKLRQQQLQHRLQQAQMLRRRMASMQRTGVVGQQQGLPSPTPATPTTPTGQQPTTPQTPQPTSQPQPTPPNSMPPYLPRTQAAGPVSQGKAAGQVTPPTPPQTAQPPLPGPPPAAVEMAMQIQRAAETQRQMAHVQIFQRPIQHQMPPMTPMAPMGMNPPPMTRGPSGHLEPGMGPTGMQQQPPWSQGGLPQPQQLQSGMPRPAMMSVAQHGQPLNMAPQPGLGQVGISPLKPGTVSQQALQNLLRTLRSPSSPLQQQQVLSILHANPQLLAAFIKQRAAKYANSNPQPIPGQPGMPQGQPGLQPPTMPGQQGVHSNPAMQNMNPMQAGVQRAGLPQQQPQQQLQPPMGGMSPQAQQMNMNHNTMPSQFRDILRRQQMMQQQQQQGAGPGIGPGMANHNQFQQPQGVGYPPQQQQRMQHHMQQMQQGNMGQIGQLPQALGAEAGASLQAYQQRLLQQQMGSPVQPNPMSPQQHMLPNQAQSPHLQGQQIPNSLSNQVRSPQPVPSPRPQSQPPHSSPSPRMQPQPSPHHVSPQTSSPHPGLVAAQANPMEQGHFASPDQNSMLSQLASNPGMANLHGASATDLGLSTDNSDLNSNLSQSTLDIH

As to `CNC(=O)COc1cc2cc(Nc3nc(N4CCC(C(=O)N5CCN(CCC(=O)N6CCC(n7nc(N8CCCc9cc(-c%10cnn(C)c%10)c(C(F)F)cc98)c8c7CCN(C(=O)NC)C8)CC6)CC5)CC4)ncc3Cl)cc(OC)c2n(C)c1=O` [TCIP3], the IC50 was around 7.5 nM in test [1] (SU-DHL-5, + dox (1 μg/mL doxycycline 24 h prior)); around 2 nM in test [1] (SU-DHL-5, − dox); 6.9 nM in the test on DAUDI. The “p300 protein abundance log2(fold change)” value at p300 was determined as 0.37.
